Measured values as given in patent US12329160B2, “Activated ferrate compositions” (THE TEXAS A & M UNIVERSITY SYSTEM, priority 2018, dated 2025).

Assays:
[1] = Oxidation of individual organic contaminants by Fe^VI with or without S2O3^2− in buffered ultrapure water, HPLC; assay type: physicochemical; settings: for partial oxidation by Fe^VI without S2O3^2−: ratio 25:1 [Fe^VI]:[contaminants], Fe^VI 100.0 μM, pH 8.00, 30 seconds
Method: To test liquid ferrate solutions using second approach, batch experiments were conducted in a series of 100 mL glass jars under constant stirring rate (400 rpm) with a magnetic stirrer. Oxidation of each micropollutant or their mixtures by Fe^VI with or without S2O3^2− was initiated by mixing equal solution volumes of 10 mL, and the final reaction solutions were kept at 8.00±0.04.
(§1) The stock solutions of these contaminants (10.0 μM) were prepared in 10.0 mM Na2HPO4, and diluted using the same buffer solution before the removal experiments. […] Solutions of Fe^VI were prepared by adding K2FeO4 powders to 5.0 mM Na2HPO4/1.0 mM Na2B4O7.10H2O buffer solution. The concentrations of Fe^VI were quantitatively measured using an UV-visible spectrometer at a wavelength of 510 nm with a molar absorption coefficient of ε510 nm=1150 M^−1 cm^−1: The pH value of the contaminant solutions was adjusted to 7.50 via the addition of diluted H3PO4 before mixing with Fe^VI solution to achieve the desired reaction pH at 8.00±0.04. Methanol and phosphoric acid (85%) of high performance liquid chromatography (HPLC) grade were used in testing. 5,5-dimethyl-1-pyrroline-N-oxide (DMPO) was used as the spin trap reagent for identifying the possible reactive inorganic radicals (e.g., .OH and/or SO4.^−) in the oxidation system. All the other chemicals (e.g., hydroxylamine and permanganate) were provided from commercial sources and used without further purification. Two kinds of natural water samples were individually obtained from Brazos River (N 30°42′33″, E 96°28′5″, College Station, Texas) and Lake Bryan (N 30°33′30″, E 96°25′25″, Bryan, Texas). […] These real water samples were filtered through 0.45 μm hydrophilic PVDF membrane to remove the insoluble particles before spiking the contaminant mixtures (1.0 μM for each compound). 20.0 mM borate buffer was used to stabilize the solution pH of the real waters at 8.00±0.04. All the other solutions were prepared using the ultrapure water (resistivity >18 MΩ cm^−1).
(§2) Experiments were conducted in a series of 100 mL glass jars under constant stirring rate (400 rpm) with a magnetic stirrer. Oxidation of each contaminant or their mixtures by Fe^VI with or without S2O3^2− was initiated by mixing equal solution volumes of 10 mL, and the final reaction solutions were kept at 8.00±0.04. The concentration of Fe^VI was maintained at 100.0 μM, and the ratios of [S2O3^2−]:[Fe^VI] in the system were varied from 0 to 5.0 for aqueous removal of TMP (5.0 μM). […] After 30 seconds of oxidation, 20.0 μL NH2OH solution (1 M) was added to quench the reactions. Samples were transferred into high performance liquid chromatography (HPLC) vials, and were subsequently analyzed using the HPLC method. Similar experiments using TMP as a target contaminant were also performed by replacing Fe^VI with Mn^VII or chlorine under the same conditions.

[2] = Elimination of six pharmaceuticals by Fe^VI—S2O3^2− in river water (Brazos River); assay type: physicochemical; settings: mixture 1.0 μM each, [S2O3^2−]:[Fe^VI] 0.125, Fe^VI 150.0 μM, pH 8.0, 30 seconds
Method: (§3) The contaminants are: carbamazepine (CMZ), diclofenac (DCF), enrofloxacin (ENR), propranolol (PPN), sulfadimethoxine (SMX), and trimethoprim (TMP). Experimental conditions: [Each contaminant]0 in mixture of samples=1.0 μM, [Fe^VI]0:[Total contaminants]=25:1, [S2O3^2−]0:[Fe^VI]0=0.125, [Fe^VI]0=150.0 μM, [S2O3^2−]0=18.75 μM, pH=8.00±0.05, reaction time=30 s).
The stock solutions of these contaminants (10.0 μM) were prepared in 10.0 mM Na2HPO4, and diluted using the same buffer solution before the removal experiments. Potassium ferrate (K2FeO4, purity >90%) was prepared using a wet chemical synthesis method. Solutions of Fe^VI were prepared by adding K2FeO4 powders to 5.0 mM Na2HPO4/1.0 mM Na2B4O7.10H2O buffer solution. The concentrations of Fe^VI were quantitatively measured using an UV-visible spectrometer at a wavelength of 510 nm with a molar absorption coefficient of ε510 nm=1150 M^−1 cm^−1: The pH value of the contaminant solutions was adjusted to 7.50 via the addition of diluted H3PO4 before mixing with Fe^VI solution to achieve the desired reaction pH at 8.00±0.04. […] No test contaminants were detected in these waters, and the basic physico-chemical parameters are pH, 8.36, UV254, 0.071 and UV400, 0.006 for river water; and pH, 9.43, UV254, 0.202, and UV400, 0.017 for lake water. […]

[3] = Elimination of six pharmaceuticals by Fe^VI—S2O3^2− in lake water (Lake Bryan); assay type: physicochemical; settings: mixture 1.0 μM each, [S2O3^2−]:[Fe^VI] 0.125, Fe^VI 150.0 μM, pH 8.0, 30 seconds
Method: as §3, §1
as §2, with “conditions. All experiments were carried out at room temperature, and were at least in triplicates.” for “conditions.”
For the chromatographic separation of six contaminant mixtures (CMZ, DCF, ENR, PPN, SMX, and TMP), a solvent gradient method was used with flow rate of 0.8 mL/min. This method started with 35% B (0-7.5 min), followed by 35% B to 55% B (7.5-10.5 min), 55% B to 70% B (10.5-15.5 min), 70% B to 90% B (15.5-18.5 min), 90% B (18.5-25.0 min), 90% B to 35% B (25.0-25.5 min) and post-equilibration at 35% B (25.5-33.0 min).

[4] = pH 8.0; cited from earlier work

Compound	partial oxidation by Fe^VI without S2O3^2− [1]	removal by Fe^VI—S2O3^2− in river water [2]	removal by Fe^VI—S2O3^2− in lake water [3]	oxidation of TMP by Fe^VI—S2O3^2− ([1]; molar ratio [S2O3^2−]:[Fe^VI] 0.125, TMP 5.0 μM, Fe(VI) 100.0 μM, pH 8.0, 30 seconds)	elimination of TMP by Fe^VI—S2O3^2− ([1]; molar ratio [S2O3^2−]:[Fe^VI] 5.0, TMP 5.0 μM, Fe(VI) 100.0 μM, pH 8.0, 30 seconds)	oxidation of TMP by Fe^VI ([1]; without S2O3^2−, TMP 5.0 μM, Fe(VI) 100.0 μM, pH 8.0, quenched after 30 seconds, oxygenated)	k, reactivity of Fe^VI with DMSO [4]
NC(=O)N1c2ccccc2C=Cc2ccccc21 [CMZ, Carbamazepine]	25.11%	about 80%	about 50%	–	–	–	–
O=C(O)Cc1ccccc1Nc1c(Cl)cccc1Cl [DCF, Diclofenac]	20.85%	–	about 80%	–	–	–	–
COc1cc(Cc2cnc(N)nc2N)cc(OC)c1OC [TMP, Trimethoprim]	22.04%	–	about 80%	100%	about 4%	about 16%	–
CCN1CCN(c2cc3c(cc2F)c(=O)c(C(=O)O)cn3C2CC2)CC1 [ENR, Enrofloxacin]	41.02%	about 80%	about 50%	–	–	–	–
Potassium ferrate [Fe^VI]	–	–	–	–	–	–	about 1 M^−1 s^−1
COc1cc(NS(=O)(=O)c2ccc(N)cc2)nc(OC)n1 [SMX, Sulfadimethoxine]	47.27%	–	about 80%	–	–	–	–
CC(C)NCC(O)COc1cccc2ccccc12 (stereo not drawn) [PPN, Propranolol]	32.46%	–	about 80%	–	–	–	–
